From patent publication US4910214A, “Optical isomer of an imidazole derivative medetomidine as an alpha-2-receptor agonist” (Farmos Yhtyma Oy, priority 1987, dated 1990)
Read-outs that look alike come from different tables or passages of the source.

Experiments:
[1] = biological target: T1, presynaptic α2 -adrenoceptors (Mus musculus, UniProt Q01338); experiment: α2-agonism in vitro, isolated electrically stimulated mouse vas deferens; assay type: cell-based; conditions: for EC50: negative log of molar concentration producing 50 percent of maximal inhibition of electrically induced contractions, read-out: α2 -agonism in vitro (mouse vas deferens). pD2 (converted)
T1 construct: isolated, electrically stimulated mouse was deferens preparation; from tissue; host or cells: mouse vas deferens
T1 sequence (Q01338 1-465): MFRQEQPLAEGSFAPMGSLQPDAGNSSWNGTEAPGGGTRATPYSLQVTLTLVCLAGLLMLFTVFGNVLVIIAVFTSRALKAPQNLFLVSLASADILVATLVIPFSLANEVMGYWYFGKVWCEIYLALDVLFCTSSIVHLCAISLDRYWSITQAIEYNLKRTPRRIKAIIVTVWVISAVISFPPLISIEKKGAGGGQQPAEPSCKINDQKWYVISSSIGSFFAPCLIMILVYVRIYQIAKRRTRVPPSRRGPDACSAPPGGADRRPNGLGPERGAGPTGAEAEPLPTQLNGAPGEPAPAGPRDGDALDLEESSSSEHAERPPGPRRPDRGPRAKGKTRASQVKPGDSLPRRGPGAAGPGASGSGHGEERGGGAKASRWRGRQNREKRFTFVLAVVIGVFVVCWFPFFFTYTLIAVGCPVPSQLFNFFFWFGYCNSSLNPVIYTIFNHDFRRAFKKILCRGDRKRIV
Protocol: α2 -agonism was determined by means of isolated, electrically stimulated mouse was deferens preparation (Marshall et al., Br. J. Pharmac. 62, 147-151, 1978). […] Results are shown in Table 1, where the α2 -agonist effect is presented as the pD2 -value (negative logarith of the molar concentration of the compound producing 50 percent of maximal inhibition.)

[2] = biological target: T2, α2 -receptors (Rattus norvegicus, UniProt P22909); experiment: biochemical; assay type: binding
T2 construct: from tissue; host or cells: rat brain membranes
T2 sequence (P22909 1-465): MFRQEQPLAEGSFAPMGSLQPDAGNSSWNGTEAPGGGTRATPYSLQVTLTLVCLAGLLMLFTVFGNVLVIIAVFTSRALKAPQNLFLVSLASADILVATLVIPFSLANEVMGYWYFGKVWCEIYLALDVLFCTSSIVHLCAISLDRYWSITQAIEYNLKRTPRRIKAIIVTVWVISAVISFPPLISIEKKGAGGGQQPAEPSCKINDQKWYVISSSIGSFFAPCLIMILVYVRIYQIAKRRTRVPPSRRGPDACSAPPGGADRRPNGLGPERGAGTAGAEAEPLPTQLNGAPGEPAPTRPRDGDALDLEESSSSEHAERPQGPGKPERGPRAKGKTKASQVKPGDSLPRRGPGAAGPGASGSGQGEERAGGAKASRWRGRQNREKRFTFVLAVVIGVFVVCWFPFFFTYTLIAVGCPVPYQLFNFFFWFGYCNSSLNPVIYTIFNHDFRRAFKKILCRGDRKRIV
From the text: (§1) The selectivity of the d-enantiomer as an α2 -agonist was studied in receptor binding experiments using rat brain membranes. […] 108, 163-9, 1985.

[3] = system: α2 -receptors; experiment: biochemical; assay type: binding, rat; conditions: ratio of 3H-prazosin IC50 to 3H-clonidine IC50
From the text: as §1

[4] = biological target: α1 -receptors; experiment: 3H-prazosin displacement, receptor binding in rat brain membranes
From the text: as §1

[5] = system: mice; experiment: Spontaneous motility (Animex-activity meter); assay type: in vivo; conditions: Mus musculus, sc, 0.5 h; s.c.; 30 minutes before two-minute measuring period; read-out: ED50 in reducing spontaneous motility in mice
[6] = system: mice; experiment: Acetic acid-induced writhing test; assay type: in vivo; conditions: Mus musculus, sc, 45 min before 1% acetic acid i.p.; writhes counted 25 min
Protocol: The sedative-analgesic properties of the compounds were studied in the spontaneous motility and writhing-test in the mouse. Spontaneous motility of mice and rats was measured using the Animex-activity meter. The test compounds were administered i.p. 30 minutes before the measuring periods of two minutes. In the writhing test the compounds studied and saline were administered s.c. to […], and 45 min. later 1 ml of 1% acetic acid was administered i.p. The number of writhes was recorded in the following 25 min. period (Koster et al., Fred. Proc. 18: 412, 1959).

[7] = system: rat; experiment: Elevated t-maze test, exploration of open and enclosed arms (anxiolytic effects); assay type: in vivo; conditions: for Mean number of entries, closed / Mean number of entries, open / Mean number of entries, total / open/total entries: 5 minutes, n = 6
Protocol: The anxiolytic effects of the compounds were studied using a method described by Handley and Mithoni: Naunyn-Schmiedeb, Arch. Pharmacol. 327, 1-5, 1984. In this test the manner of exploration of open and enclosed arms in an elevated t-maze by a rat is examined. It has been shown that anxiolytic drugs increase the relative exploration of open arms. A rat is placed in the center of the t-maze and the number of open and enclosed entries is recorded during 5 minutes.

[8] = system: rat; conditions: for CSF MHPG-SO4 (% of control): 4 h after adm.
From the text: It is well known that anxiety states connected to withdrawal symptoms are due to noradrenergic hyperactivity.

[9] = system: Sprague-Dawley rats; conditions: anesthetized rats; for Decrease in BP / Decrease in heart rate: femoral vein
Protocol: After this, the femoral artery was connected by a polyethylene tube to a blood pressure transducer. The test substance was then injected into the femoral vein and the blood pressure and the pulse frequency were registered with a recorder.

Cc1cccc(C(C)c2cnc[nH]2)c1C (racemic) [medetomidine]
EC50 [1]: 1 nM
IC50 [2]: 3.3 nM
α2 /α1 -selectivity [3]: 5060
IC50 [4]: 16700 nM
ED50 [5]: 0.05 mg/kg
ED50 [6]: 0.02 mg/kg

Cc1cccc([C@@H](C)c2cnc[nH]2)c1C [1-enantiomer]
EC50 [1]: 1000 nM
type of agonism (mouse vas deferens) ([1]; remark in pD2 cell): partial agonist
IC50 [2]: 46 nM
α2 /α1 -selectivity [3]: 4129
IC50 [4]: 190000 nM
ED50 [5]: > 10 mg/kg
ED50 [6]: > 10 mg/kg

Clc1cccc(Cl)c1N=C1NCCN1 [clonidine, reference compound]
EC50 [1]: 3.16 nM
IC50 [4]: 6200 nM
ED50 [5]: 0.3 mg/kg
ED50 [6]: 0.03 mg/kg

Cc1cccc([C@H](C)c2cnc[nH]2)c1C [d-enantiomer]
EC50 [1]: 0.501 nM
IC50 [2]: 1.2 nM
α2 /α1 -selectivity [3]: 45849
IC50 [4]: 55000 nM
ED50 [5]: 0.02 mg/kg
ED50 [6]: 0.01 mg/kg
Mean number of entries, closed ([7]; dose 0.0003 mg/kg): 10.6
Mean number of entries, open ([7]; dose 0.0003 mg/kg): 4.8
Mean number of entries, total ([7]; dose 0.0003 mg/kg): 14.0
open/total entries ([7]; dose 0.0003 mg/kg): 0.20
Mean number of entries, closed ([7]; dose 0.001 mg/kg): 10.6
Mean number of entries, open ([7]; dose 0.001 mg/kg): 3.2
Mean number of entries, total ([7]; dose 0.001 mg/kg): 13.8
open/total entries ([7]; dose 0.001 mg/kg): 0.23
Mean number of entries, closed ([7]; dose 0.003 mg/kg): 9.5
Mean number of entries, open ([7]; dose 0.003 mg/kg): 4.0
Mean number of entries, total ([7]; dose 0.003 mg/kg): 13.5
open/total entries ([7]; dose 0.003 mg/kg): 0.29
Mean number of entries, closed ([7]; dose 0.01 mg/kg): 8.8
Mean number of entries, open ([7]; dose 0.01 mg/kg): 5.8
Mean number of entries, total ([7]; dose 0.01 mg/kg): 14.6
open/total entries ([7]; dose 0.01 mg/kg): 0.39
Mean number of entries, closed ([7]; dose 0.03 mg/kg): 3.0
Mean number of entries, open ([7]; dose 0.03 mg/kg): 2.5
Mean number of entries, total ([7]; dose 0.03 mg/kg): 5.5
open/total entries ([7]; dose 0.03 mg/kg): 0.45
anxiolytic effect in the elevated t-maze test (in words) ([7]; summary of Table 5): anxiolytic profile
effect on noradrenaline release (in words) ([8]; central and peripheral nervous systems): able to reduce noradrenaline release
CSF MHPG-SO4 (% of control) ([8]; dose 3 μg/kg): -10 % of control
CSF MHPG-SO4 (% of control) ([8]; dose 10 μg/kg): -20 % of control
CSF MHPG-SO4 (% of control) ([8]; dose 30 μg/kg): -30 % of control
CSF MHPG-SO4 (% of control) ([8]; dose 100 μg/kg): -65 % of control
effect on blood pressure and heart rate (in words) ([9]; summary of Table 7): clear anti-hypertensive and bradycardia effects
Decrease in BP ([9]; dose 0.001 mg/kg): -8%
Decrease in heart rate ([9]; dose 0.001 mg/kg): -21%
Decrease in BP ([9]; dose 0.003 mg/kg): -23%
Decrease in heart rate ([9]; dose 0.003 mg/kg): -40%
Decrease in BP ([9]; dose 0.01 mg/kg): -43%
Decrease in heart rate ([9]; dose 0.01 mg/kg): -47%
Decrease in BP ([9]; dose 0.03 mg/kg): -45%
Decrease in heart rate ([9]; dose 0.03 mg/kg): -48%
Decrease in BP ([9]; dose 0.1 mg/kg): -45%
Decrease in heart rate ([9]; dose 0.1 mg/kg): -50%

Cc1cccc(Cc2c[nH]cn2)c1C [detomidine]
EC50 [1]: 3.16 nM
IC50 [2]: 3.7 nM
ED50 [5]: 0.3 mg/kg
ED50 [6]: 0.02 mg/kg

CN1C(=O)CN=C(c2ccccc2)c2cc(Cl)ccc21 [diazepam, reference compound]
Mean number of entries, closed ([7]; dose 1 mg/kg): 10.5
Mean number of entries, open ([7]; dose 1 mg/kg): 5.2
Mean number of entries, total ([7]; dose 1 mg/kg): 15.7
open/total entries ([7]; dose 1 mg/kg): 0.33
